Experiments:
[1] = tested on: CXCR4/CXCL12-mediated chemotaxis and invasion; experiment: Matrigel invasion assay; type: cell-based; settings: for Invasion Assay: Table 2; for Invasion: Table 3, concentration used 100 nM; for inhibition at 0.1 µM: single concentration of 100 nM, CXCL12 as chemoattractant, FIG. 2, read-out: inhibitory rate, Matrigel invasion
Source text: To model in vitro metastasis, a Matrigel® invasion assay was used as the functional assay. […] A layer of Matrigel® matrix-coated permeable support (8 μm pore diameter) separates the upper and lower chambers.

[2] = target: T1, CXCR4 (Homo sapiens, UniProt P61073); experiment: Primary binding affinity screening (competition with biotinylated TN14003)
T1 construct: endogenous in cells; host or cells: MDA-MB-231
Method: The compounds were initially screened with a binding affinity assay. […] MDA-MB-231 cells were pre-incubated with compounds at concentrations of 1, 10, 100, and 1000 nM, then incubated with biotinylated TN14003 and streptavidin-conjugated rhodamine to determine the binding efficiency of the new compounds to the CXCL12 binding domain of CXCR4. […] Thus, this screening is a semi-quantitative, first pass measure of the level of activity.
For binding affinity assay, 2×10^4 MDA-MB-231 cells in 300 μL of cell culture medium were seeded in an 8-well slide chamber 2 days before the experiments were conducted. Various concentrations of different compounds (1, 10, 100, or 1000 nM) were added to the separate wells and incubated for 10 min at room temperature, and then the cells were fixed in 4% ice-cold paraformaldehyde. The cells were rehydrated in phosphate-buffered saline (PBS). The slides were subsequently incubated for 30 min at room temperature with 0.05 μg/mL biotinylated TN14003, washed three times with PBS, and incubated in streptavidin-rhodamine (1:150 dilution; Jackson ImmunoResearch Laboratories, West Grove, Pa.) for 30 min at room temperature. Finally, the slides were washed with PBS and mounted in an anti-fade mounting solution (Molecular Probes, Eugene, Oreg.), and the samples were analyzed on a Nikon Eclipse E800 microscope.

[3] = tested on: carrageenan-induced mouse paw edema; experiment: In vivo suppression against carrageenan-induced paw edema; settings: for Carageenan: Table 3, mice dosed 10 mg of compound per kg
Method: CXCR4 plays a role in the recruitment of inflammatory cells to sites of inflammation. Blocking CXCR4 is a therapeutic strategy in inflammatory diseases. A carrageenan-induced mouse paw edema model as an efficient model to evaluate the in vivo CXCR4 antagonistic activity for CXCR4 inhibitors.
Acute inflammation was induced by subcutaneous injection of 50 μL of λ-carrageenan (1% w/v in saline) into one of the hind paws of the female C57BL/6J mice (Jackson Laboratories); the other hind paw was injected with 50 μL of saline, which was used as a non-inflammation control. The selected compounds were dissolved in 10% DMSO and 90% of 45% (2-hydroxypropyl)-β-cyclodextrin (CD) in PBS. In the treatment group, compounds IIg, IIk, IIm and IIn were administered intraperitoneally (i.p.) at 10 mg/kg daily, while TN14003 was administered at 300 μg/kg, i.p., daily, 30 min following carrageenan challenge. The rationale for using 300 μg/kg for TN14003 was that this concentration was reported to be the minimum concentration needed to achieve the maximum efficacy of this compound in a […] metastasis animal model. See Yoon et al. CXC chemokine receptor-4 antagonist blocks both growth of primary tumor and metastasis of head and neck cancer in xenograft mouse models. Cancer Res., 67 (2007), pp. 7518-7524. Control animals received corresponding i.p. injections of the vehicle. The animals were sacrificed 74 h after carrageenan challenge and 2 h after the last injection of the selected compounds. The final paws were photographed and measured for thickness from the “palm” to the back of the paw with a caliper. These were compared to the volume of carrageenan-untreated contralateral paw to obtain the edema volume; the volume of the contralateral paw was subtracted from the volume of the carrageenan injected paw to obtain the edema volume. The inflammation-suppression percentage was calculated by comparing the drug-treated group to the control group.

[4] = effective concentration = lowest concentration with significant reduction of rhodamine fluorescence, MDA-MB-231 cells, tested at 1, 10, 100, 1000 nM

T1 sequence (P61073 whole entry): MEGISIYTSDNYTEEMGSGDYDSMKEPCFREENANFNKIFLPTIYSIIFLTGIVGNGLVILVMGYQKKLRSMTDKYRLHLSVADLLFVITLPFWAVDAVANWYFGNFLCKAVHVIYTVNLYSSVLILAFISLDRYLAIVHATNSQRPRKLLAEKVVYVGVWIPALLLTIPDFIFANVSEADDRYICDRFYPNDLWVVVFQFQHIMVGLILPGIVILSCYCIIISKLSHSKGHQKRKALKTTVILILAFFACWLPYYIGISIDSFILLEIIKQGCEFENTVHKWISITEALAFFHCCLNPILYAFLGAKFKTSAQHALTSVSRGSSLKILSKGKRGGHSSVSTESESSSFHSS

Fc1cccc(NCc2ccc(CNc3cccc(F)c3)nc2)c1 [2,5-pyridine H 3-F Phenyl, N,N′-(Pyridine-2,5-diylbis(methylene))bis(3-fluoroaniline)]
Invasion Assay [1]: 50%
EC ([2]; Table 2): 10 nm

CCc1ccc(NCc2ccc(CNc3ccc(CC)cc3)nc2)cc1 [2,5-pyridine H 4-Et Phenyl, N′-(Pyridine-2,5-diylbis(methylene))bis(4-ethylaniline)]
Invasion Assay [1]: 64%
EC ([2]; Table 2): 1 nm

CCc1ccccc1NCc1cccc(CNc2ccccc2CC)n1 [2,6-Bis(2-ethylanilinomethyl)pyridine]
Invasion [1]: 59%
EC ([2]; Table 3): 1 nM
Carageenan [3]: 18.1%

Fc1cccc(NCc2cccc(CNc3cccc(F)c3)n2)c1 [2,6-Bis(3-fluoroanilinomethyl)pyridine]
Invasion [1]: 50%
EC ([2]; Table 3): 10 nM
Carageenan [3]: 20.3%

COc1cccc(NCc2cccc(CNc3cccc(OC)c3)n2)c1 [2,6-Bis(3-methoxyanilinomethyl)pyridine]
Invasion [1]: 37%
EC ([2]; Table 3): 100 nM
Carageenan [3]: 20.1%

CCc1ccc(NCc2cccc(CNc3ccc(CC)cc3)n2)cc1 [2,6-Bis(4-ethylanilinomethyl)pyridine]
Invasion [1]: 64%
EC ([2]; Table 3): 1 nM
Carageenan [3]: 42.0%

FC(F)(F)c1ccc(NCc2cccc(CNc3ccc(C(F)(F)F)cc3)n2)cc1 [2,6-Bis(4-trifluoromethylanilinomethyl)pyridine]
Invasion [1]: 52%
EC ([2]; Table 3): 1 nM
Carageenan [3]: 20.3%

c1cc(CN2CCOCC2)nc(CN2CCOCC2)c1 [2,6-Bis(morpholinylmethyl)pyridine]
Invasion [1]: 63%
EC ([2]; Table 3): 10 nM
Carageenan [3]: 39.1%

c1cc(CN2CCCNCCNCCCNCC2)ccc1CN1CCCNCCNCCCNCC1 [AMD3100, reference compound]
Invasion [1]: 62%
EC ([2]; Table 3): 1000 nM
EC [2, 4]: 1000 nM

c1cc(CN2CCCC2)nc(CN2CCCC2)c1 [IIa, 2,6-Bis(pyrrolidin-1-ylmethyl)pyridine]
EC [2, 4]: 1 nM

c1cc(CN2CCCCC2)nc(CN2CCCCC2)c1 [IIb, 2,6-Bis(piperidin-1-ylmethyl)pyridine]
inhibition at 0.1 µM [1]: 65.3%
EC [2, 4]: 1 nM

c1cc(CN2CCOCC2)nc(CN2CCOCC2)c1 [IIc, 2,6-Bis(morpholinomethyl)pyridine]
inhibition at 0.1 µM [1]: 68.9%
EC [2, 4]: 100 nM

CN(Cc1cccc(CN(C)c2ccc(F)cc2)n1)c1ccc(F)cc1 [IIe, N,N′-(Pyridine-2,6-diylbis(methylene))bis(4-fluoro-N-methylaniline)]
inhibition at 0.1 µM [1]: < 50%
EC [2, 4]: 1000 nM

CN(Cc1cccc(CN(C)Cc2ccccc2Cl)n1)Cc1ccccc1Cl [IIf, N,N′-(Pyridine-2,6-diylbis(methylene))bis(1-(2-chlorophenyl)-N-methylmethanamine)]
EC [2, 4]: >1000 nM

CN(Cc1cccc(Cl)c1)Cc1cccc(CN(C)Cc2cccc(Cl)c2)n1 [IIg, N,N′-(Pyridine-2,6-diylbis(methylene))bis(1-(3-chlorophenyl)-N-methylmethanamine)]
inhibition at 0.1 µM [1]: 88.6%
EC [2, 4]: 10 nM

CN(Cc1cccc(CN(C)Cc2ccccc2F)n1)Cc1ccccc1F [IIh, N,N′-(Pyridine-2,6-diylbis(methylene))bis(1-(2-fluorophenyl)-N-methylmethanamine)]
EC [2, 4]: 1000 nM

CN(Cc1cccc(F)c1)Cc1cccc(CN(C)Cc2cccc(F)c2)n1 [IIi, N,N′-(Pyridine-2,6-diylbis(methylene))bis(1-(3-fluorophenyl)-N-methylmethanamine)]
EC [2, 4]: >1000 nM

CN(Cc1ccc(F)cc1)Cc1cccc(CN(C)Cc2ccc(F)cc2)n1 [IIj, N,N′-(Pyridine-2,6-diylbis(methylene))bis(1-(4-fluorophenyl)-N-methylmethanamine)]
EC [2, 4]: 1000 nM

CCN(Cc1ccccc1)Cc1cccc(CN(CC)Cc2ccccc2)n1 [IIl, N,N′-(Pyridine-2,6-diylbis(methylene))bis(N-benzylethanamine)]
EC [2, 4]: >1000 nM

c1ccc(CN(Cc2cccc(CN(Cc3ccccc3)CC3CC3)n2)CC2CC2)cc1 [IIm, N,N′-(Pyridine-2,6-diylbis(methylene))bis(N-benzyl-1-cyclopropylmethanamine)]
inhibition at 0.1 µM [1]: 100%
EC [2, 4]: 1 nM

CN(Cc1cccnc1)Cc1cccc(CN(C)Cc2cccnc2)n1 [IIo, N,N′-(Pyridine-2,6-diylbis(methylene))bis(N-methyl-1-(pyridin-3-yl)methanamine)]
EC [2, 4]: >1000 nM

CN(Cc1ccncc1)Cc1cccc(CN(C)Cc2ccncc2)n1 [IIp, N,N′-(Pyridine-2,6-diylbis(methylene))bis(N-methyl-1-(pyridin-4-yl)methanamine)]
EC [2, 4]: >1000 nM

c1cc(CN2CCCC2)ccc1CN1CCCC1 [Ia, 1,4-Bis(pyrrolidin-1-ylmethyl)benzene]
EC [2, 4]: 1000 nM

CN(Cc1ccc(CN(C)Cc2ccccc2Cl)cc1)Cc1ccccc1Cl [If, N,N′-(1,4-Phenylenebis(methylene))bis(1-(2-chlorophenyl)-N-methylmethanamine)]
EC [2, 4]: >1000 nM

CN(Cc1ccc(CN(C)Cc2cccc(Cl)c2)cc1)Cc1cccc(Cl)c1 [Ig, N,N′-(1,4-Phenylenebis(methylene))bis(1-(3-chlorophenyl)-N-methylmethanamine)]
EC [2, 4]: 1000 nM

CN(Cc1ccc(CN(C)Cc2ccccc2F)cc1)Cc1ccccc1F [Ih, N,N′-(1,4-Phenylenebis(methylene))bis(1-(2-fluorophenyl)-N-methylmethanamine)]
EC [2, 4]: >1000 nM

CN(Cc1ccc(CN(C)Cc2cccc(F)c2)cc1)Cc1cccc(F)c1 [Ii, N,N′-(1,4-Phenylenebis(methylene))bis(1-(3-fluorophenyl)-N-methylmethanamine)]
EC [2, 4]: >1000 nM

COc1cccc(CN(C)Cc2ccc(CN(C)Cc3cccc(OC)c3)cc2)c1 [Ik, N,N′-(1,4-Phenylenebis(methylene))bis(1-(3-methoxyphenyl)-N-methylmethanamine)]
inhibition at 0.1 µM [1]: < 50%
EC [2, 4]: 10 nM

CCN(Cc1ccccc1)Cc1ccc(CN(CC)Cc2ccccc2)cc1 [Il, N,N′-(1,4-Phenylenebis(methylene))bis(N-benzylethanamine)]
EC [2, 4]: 1000 nM

c1ccc(CN(Cc2ccc(CN(Cc3ccccc3)CC3CC3)cc2)CC2CC2)cc1 [Im, N,N′-(1,4-Phenylenebis(methylene))bis(N-benzyl-1-cyclopropylmethanamine)]
EC [2, 4]: 1000 nM

CN(Cc1ccc(CN(C)Cc2ccccn2)cc1)Cc1ccccn1 [In, N,N′-(1,4-Phenylenebis(methylene))bis(N-methyl-1-(pyridin-2-yl)methanamine)]
EC [2, 4]: >1000 nM

CN(Cc1ccc(CN(C)Cc2cccnc2)cc1)Cc1cccnc1 [Io, N,N′-(1,4-Phenylenebis(methylene))bis(N-methyl-1-(pyridin-3-yl)methanamine)]
EC [2, 4]: >1000 nM

CN(Cc1ccncc1)Cc1ccc(CN(C)Cc2ccncc2)cc1 [Ip, N,N′-(1,4-Phenylenebis(methylene))bis(N-methyl-1-(pyridin-4-yl)methanamine)]
EC [2, 4]: >1000 nM

Cc1cccc(NCc2ccc(CNc3cccc(C)c3)nc2)c1 [N,N′-(Pyridine-2,5-diylbis(methylene))bis(3-methylaniline)]
Invasion Assay [1]: 60.2%
Invasion [1]: 58%
EC ([2]; Table 2): 100 nm
EC ([2]; Table 3): 1 nM

TN14003 [reference compound]
inflammation-suppression percentage (paw edema) ([3]; 300 μg/kg i.p. daily, female C57BL/6J mice, 74 h after carrageenan challenge): 48%

Source: patent publication US10709697B2, “Bis-amines, compositions, and uses related to CXCR4 inhibition” (Emory University, priority 2015, dated 2020)
